Source: ChEMBL document CHEMBL1144455, “A small molecule-kinase interaction map for clinical kinase inhibitors” (Nat Biotechnol, 2005)

What was measured:
Ephrin type-A receptor 4 = Ephrin type-A receptor 4 (Homo sapiens, UniProt P54764)
Aurora kinase A = target: T1, Aurora kinase A (Homo sapiens, UniProt O14965)
T1 sequence (O14965 whole entry): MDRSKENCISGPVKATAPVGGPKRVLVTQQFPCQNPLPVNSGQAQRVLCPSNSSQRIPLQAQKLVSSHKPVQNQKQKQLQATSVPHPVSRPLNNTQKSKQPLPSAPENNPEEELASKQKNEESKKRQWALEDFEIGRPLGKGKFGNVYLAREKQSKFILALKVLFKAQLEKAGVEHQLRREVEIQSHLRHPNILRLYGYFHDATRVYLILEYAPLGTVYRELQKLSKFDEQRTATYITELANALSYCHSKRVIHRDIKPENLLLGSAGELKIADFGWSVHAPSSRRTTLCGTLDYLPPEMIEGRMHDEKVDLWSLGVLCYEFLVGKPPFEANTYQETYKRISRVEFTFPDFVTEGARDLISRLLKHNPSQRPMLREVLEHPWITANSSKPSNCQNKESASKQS

[1] = target: Proto-oncogene tyrosine-protein kinase Src (Homo sapiens, UniProt P12931)
[2] = target: T2, Serine/threonine-protein kinase Nek2 (Homo sapiens, UniProt P51955)
T2 sequence (P51955 whole entry): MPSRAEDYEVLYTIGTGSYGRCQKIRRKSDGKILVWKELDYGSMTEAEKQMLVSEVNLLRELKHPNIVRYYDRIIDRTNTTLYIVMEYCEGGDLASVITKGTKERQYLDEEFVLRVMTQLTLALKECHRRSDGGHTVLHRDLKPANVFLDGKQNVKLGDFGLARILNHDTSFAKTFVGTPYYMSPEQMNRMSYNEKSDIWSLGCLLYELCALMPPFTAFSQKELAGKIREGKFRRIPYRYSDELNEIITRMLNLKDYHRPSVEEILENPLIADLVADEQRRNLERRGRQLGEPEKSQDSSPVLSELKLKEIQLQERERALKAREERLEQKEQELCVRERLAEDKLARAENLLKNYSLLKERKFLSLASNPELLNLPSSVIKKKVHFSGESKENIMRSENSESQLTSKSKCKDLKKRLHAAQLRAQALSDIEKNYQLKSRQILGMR

[3] = target: Receptor-interacting serine/threonine-protein kinase 2 (Homo sapiens, UniProt O43353)
[4] = target: Mitogen-activated protein kinase kinase kinase kinase 5 (Homo sapiens, UniProt Q9Y4K4)
[5] = target: Ribosomal protein S6 kinase alpha-5 (Homo sapiens, UniProt O75582)
[6] = target: Serine/threonine-protein kinase pim-2 (Homo sapiens, UniProt Q9P1W9)
[7] = target: T3, Receptor-type tyrosine-protein kinase FLT3 (Homo sapiens, UniProt P36888)
T3 sequence (P36888 whole entry): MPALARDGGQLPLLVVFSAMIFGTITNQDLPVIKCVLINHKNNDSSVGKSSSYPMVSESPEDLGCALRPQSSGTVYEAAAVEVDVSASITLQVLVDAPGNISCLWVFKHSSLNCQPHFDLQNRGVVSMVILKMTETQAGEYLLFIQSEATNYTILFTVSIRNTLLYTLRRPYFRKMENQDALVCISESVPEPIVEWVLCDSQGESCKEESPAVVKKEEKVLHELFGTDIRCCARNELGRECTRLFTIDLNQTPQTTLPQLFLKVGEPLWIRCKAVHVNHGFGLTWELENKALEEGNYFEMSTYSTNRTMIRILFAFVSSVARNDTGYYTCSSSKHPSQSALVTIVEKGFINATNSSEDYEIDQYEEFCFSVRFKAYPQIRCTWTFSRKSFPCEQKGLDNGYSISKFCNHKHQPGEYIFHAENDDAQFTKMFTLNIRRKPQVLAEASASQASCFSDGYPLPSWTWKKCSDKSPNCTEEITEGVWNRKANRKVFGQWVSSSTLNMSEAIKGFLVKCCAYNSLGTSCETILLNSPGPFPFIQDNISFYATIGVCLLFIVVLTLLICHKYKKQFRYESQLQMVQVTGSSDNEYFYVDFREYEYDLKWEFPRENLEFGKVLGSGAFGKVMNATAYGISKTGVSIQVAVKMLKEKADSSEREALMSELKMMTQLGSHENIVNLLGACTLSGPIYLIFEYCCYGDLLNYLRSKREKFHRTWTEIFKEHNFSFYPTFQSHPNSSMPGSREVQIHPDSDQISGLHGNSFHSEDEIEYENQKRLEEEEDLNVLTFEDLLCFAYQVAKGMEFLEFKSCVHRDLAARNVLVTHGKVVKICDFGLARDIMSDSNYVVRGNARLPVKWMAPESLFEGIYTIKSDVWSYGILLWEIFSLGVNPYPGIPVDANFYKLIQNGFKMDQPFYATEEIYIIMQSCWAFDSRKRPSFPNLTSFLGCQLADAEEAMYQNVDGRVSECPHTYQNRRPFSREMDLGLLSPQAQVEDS

[8] = target: Mitogen-activated protein kinase 11 (Homo sapiens, UniProt Q15759)
Chain of Mitogen-activated protein kinase 11 (Q15759 whole entry): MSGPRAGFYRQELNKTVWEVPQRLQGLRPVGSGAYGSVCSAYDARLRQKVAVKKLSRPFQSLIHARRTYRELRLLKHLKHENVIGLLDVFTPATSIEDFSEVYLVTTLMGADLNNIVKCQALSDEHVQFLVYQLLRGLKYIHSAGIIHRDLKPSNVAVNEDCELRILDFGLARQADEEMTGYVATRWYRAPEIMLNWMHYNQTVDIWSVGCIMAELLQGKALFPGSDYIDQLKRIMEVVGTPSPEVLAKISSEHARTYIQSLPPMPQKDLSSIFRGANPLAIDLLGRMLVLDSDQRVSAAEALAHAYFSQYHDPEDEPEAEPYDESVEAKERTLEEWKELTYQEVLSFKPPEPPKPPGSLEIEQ

Chain of Proto-oncogene tyrosine-protein kinase Src (P12931 2-536 limits assumed): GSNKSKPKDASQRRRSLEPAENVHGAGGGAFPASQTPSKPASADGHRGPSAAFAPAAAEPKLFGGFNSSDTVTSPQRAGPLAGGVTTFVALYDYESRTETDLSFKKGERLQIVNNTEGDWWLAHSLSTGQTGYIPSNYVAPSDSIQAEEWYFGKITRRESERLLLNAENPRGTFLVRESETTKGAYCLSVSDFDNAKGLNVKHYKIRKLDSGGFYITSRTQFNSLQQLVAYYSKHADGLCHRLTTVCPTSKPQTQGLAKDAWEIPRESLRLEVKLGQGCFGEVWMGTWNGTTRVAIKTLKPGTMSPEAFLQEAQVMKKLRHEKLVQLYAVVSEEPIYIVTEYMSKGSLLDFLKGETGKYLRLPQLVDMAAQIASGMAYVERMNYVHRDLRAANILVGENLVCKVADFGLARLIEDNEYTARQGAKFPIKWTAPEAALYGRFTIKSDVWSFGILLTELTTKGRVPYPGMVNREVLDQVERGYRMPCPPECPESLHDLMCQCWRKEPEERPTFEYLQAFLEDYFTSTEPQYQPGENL
Chain of Ribosomal protein S6 kinase alpha-5 (O75582 whole entry): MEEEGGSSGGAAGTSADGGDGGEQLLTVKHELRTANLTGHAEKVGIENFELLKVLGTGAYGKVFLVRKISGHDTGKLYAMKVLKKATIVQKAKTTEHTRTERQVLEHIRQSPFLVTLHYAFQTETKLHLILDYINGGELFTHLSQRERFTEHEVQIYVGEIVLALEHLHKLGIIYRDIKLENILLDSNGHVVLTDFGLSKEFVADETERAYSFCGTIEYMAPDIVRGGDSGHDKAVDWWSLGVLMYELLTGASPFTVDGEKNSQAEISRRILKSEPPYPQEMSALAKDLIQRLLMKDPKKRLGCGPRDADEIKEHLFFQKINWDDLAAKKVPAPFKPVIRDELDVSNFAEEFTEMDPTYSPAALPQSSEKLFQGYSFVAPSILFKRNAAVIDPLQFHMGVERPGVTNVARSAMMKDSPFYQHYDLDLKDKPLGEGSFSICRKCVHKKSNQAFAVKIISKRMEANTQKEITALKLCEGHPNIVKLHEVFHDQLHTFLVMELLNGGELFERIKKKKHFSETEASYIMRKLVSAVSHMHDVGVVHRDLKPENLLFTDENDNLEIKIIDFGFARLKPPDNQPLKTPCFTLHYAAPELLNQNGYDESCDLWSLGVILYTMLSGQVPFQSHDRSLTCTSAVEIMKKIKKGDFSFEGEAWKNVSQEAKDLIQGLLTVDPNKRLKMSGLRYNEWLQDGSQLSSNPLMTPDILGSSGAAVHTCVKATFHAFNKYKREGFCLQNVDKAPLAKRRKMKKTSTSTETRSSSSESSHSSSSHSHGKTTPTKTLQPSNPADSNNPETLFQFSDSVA
Chain of Serine/threonine-protein kinase pim-2 (Q9P1W9 whole entry): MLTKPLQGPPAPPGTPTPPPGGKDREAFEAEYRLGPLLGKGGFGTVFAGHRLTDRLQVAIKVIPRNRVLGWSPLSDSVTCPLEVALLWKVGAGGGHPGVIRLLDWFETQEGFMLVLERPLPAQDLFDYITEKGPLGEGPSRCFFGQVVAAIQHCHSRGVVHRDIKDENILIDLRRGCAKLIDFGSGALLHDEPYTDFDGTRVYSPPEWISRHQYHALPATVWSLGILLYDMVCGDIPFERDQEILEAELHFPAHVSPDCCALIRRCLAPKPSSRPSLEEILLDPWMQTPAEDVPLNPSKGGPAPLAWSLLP
Chain of Ephrin type-A receptor 4 (P54764 whole entry): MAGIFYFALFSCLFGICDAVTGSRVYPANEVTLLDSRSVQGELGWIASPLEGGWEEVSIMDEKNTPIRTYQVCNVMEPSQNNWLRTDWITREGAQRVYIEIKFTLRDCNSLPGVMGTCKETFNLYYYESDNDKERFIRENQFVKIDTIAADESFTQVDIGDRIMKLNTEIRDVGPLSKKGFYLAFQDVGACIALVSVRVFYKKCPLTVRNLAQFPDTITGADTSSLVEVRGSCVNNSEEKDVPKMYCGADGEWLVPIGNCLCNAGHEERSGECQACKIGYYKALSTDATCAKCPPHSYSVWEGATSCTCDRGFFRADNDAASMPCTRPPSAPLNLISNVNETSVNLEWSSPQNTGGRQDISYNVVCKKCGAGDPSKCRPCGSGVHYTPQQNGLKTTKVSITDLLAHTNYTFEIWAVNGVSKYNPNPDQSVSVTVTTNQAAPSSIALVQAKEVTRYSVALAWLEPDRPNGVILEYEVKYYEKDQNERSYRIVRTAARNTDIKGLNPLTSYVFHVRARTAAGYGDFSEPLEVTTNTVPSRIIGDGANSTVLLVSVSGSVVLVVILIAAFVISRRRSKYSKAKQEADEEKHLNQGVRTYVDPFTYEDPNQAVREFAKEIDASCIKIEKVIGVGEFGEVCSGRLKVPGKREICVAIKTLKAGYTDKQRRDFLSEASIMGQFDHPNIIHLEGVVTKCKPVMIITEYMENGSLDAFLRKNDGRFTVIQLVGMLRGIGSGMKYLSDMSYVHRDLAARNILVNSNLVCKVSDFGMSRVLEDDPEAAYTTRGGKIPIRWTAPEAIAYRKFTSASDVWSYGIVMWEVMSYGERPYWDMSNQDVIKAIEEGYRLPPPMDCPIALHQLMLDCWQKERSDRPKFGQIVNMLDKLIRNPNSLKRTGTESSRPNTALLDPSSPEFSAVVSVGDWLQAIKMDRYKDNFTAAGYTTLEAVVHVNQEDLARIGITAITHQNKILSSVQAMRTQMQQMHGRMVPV
Chain of Receptor-interacting serine/threonine-protein kinase 2 (O43353 whole entry): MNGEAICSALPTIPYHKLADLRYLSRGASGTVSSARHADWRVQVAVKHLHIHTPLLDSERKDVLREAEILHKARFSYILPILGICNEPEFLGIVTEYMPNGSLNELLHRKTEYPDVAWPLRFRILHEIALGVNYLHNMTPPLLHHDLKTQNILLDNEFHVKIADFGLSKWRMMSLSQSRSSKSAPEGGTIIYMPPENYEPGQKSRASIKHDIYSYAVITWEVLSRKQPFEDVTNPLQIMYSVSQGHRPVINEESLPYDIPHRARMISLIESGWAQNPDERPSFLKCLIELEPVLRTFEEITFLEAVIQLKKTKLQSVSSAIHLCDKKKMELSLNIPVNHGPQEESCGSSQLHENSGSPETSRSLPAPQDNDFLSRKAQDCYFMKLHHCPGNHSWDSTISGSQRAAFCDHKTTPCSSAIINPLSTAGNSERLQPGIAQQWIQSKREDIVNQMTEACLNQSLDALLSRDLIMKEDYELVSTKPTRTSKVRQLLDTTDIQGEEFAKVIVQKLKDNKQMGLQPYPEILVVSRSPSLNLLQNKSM
Chain of Mitogen-activated protein kinase kinase kinase kinase 5 (Q9Y4K4 whole entry): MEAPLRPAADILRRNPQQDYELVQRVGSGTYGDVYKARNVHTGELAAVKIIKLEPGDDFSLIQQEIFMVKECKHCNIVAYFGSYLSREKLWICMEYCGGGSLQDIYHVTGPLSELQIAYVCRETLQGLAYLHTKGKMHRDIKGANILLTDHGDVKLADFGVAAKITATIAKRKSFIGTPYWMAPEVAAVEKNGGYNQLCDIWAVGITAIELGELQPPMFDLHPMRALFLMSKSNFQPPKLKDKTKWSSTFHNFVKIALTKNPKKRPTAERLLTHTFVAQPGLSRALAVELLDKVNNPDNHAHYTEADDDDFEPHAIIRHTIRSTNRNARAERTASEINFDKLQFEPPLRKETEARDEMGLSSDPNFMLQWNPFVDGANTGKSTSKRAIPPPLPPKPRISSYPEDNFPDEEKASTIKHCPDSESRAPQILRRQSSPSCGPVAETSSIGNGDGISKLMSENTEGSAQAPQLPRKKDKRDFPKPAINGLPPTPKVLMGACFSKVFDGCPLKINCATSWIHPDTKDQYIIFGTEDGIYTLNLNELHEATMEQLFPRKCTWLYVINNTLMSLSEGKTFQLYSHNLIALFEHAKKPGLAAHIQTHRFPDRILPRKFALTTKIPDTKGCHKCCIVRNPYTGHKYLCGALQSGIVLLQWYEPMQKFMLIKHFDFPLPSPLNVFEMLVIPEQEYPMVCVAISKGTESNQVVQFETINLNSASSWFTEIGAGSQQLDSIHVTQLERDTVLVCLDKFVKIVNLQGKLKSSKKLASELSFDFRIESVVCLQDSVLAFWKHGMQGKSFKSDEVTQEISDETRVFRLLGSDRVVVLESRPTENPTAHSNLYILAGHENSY

Row | SMILES | Kd (Ephrin type-A receptor 4) | Kd (Aurora kinase A) | Kd [1] | Kd [2] | Kd [3] | Kd [4] | Kd [5] | Kd [6] | Kd [7] | Kd [8] | Kd ([1]; read-out: Kd)
1 | CC[C@H](CO)Nc1nc(NCc2ccccc2)c2ncn(C(C)C)c2n1 [SELICICLIB] | Not Active | Not Active | Not Active | Not Active | Not Active | Not Active | Not Active | Not Active | Not Active | Not Active | –
2 | COc1cc2c(N3CCN(C(=O)Nc4ccc(OC(C)C)cc4)CC3)ncnc2cc1OCCCN1CCCCC1 [TANDUTINIB] | Not Active | Not Active | Not Active | Not Active | Not Active | – | Not Active | Not Active | – | Not Active | –
3 | Oc1ccc(-c2nc(-c3ccc(F)cc3)c(-c3ccncc3)[nH]2)cc1 [SB-202190] | Not Active | Not Active | Not Active | Not Active | – | Not Active | Not Active | Not Active | Not Active | – | –
4 | C[S+]([O-])c1ccc(-c2nc(-c3ccc(F)cc3)c(-c3ccncc3)[nH]2)cc1 (configuration not stated) [SB-203580] | Not Active | Not Active | Not Active | Not Active | – | Not Active | Not Active | Not Active | Not Active | – | –
5 | CCOc1cc2ncc(C#N)c(Nc3ccc(F)c(Cl)c3)c2cc1NC(=O)/C=C/CN(C)C [PELITINIB] | Not Active | Not Active | – | – | Not Active | – | Not Active | Not Active | Not Active | Not Active | 120 nM
6 | Cc1ccc(NC(=O)c2ccc(CN3CCN(C)CC3)cc2)cc1Nc1nccc(-c2cccnc2)n1 [IMATINIB] | Not Active | Not Active | – | Not Active | Not Active | Not Active | Not Active | Not Active | Not Active | Not Active | –
7 | O=c1ncn2nc(Sc3ccc(F)cc3F)ccc2c1-c1c(Cl)cccc1Cl [NEFLAMAPIMOD] | – | Not Active | – | Not Active | Not Active | Not Active | Not Active | Not Active | Not Active | – | –
8 | Oc1c2ccccc2c2c3c(cccc13)N=N2 [SP-600125] | Not Active | – | Not Active | Not Active | Not Active | Not Active | – | – | Not Active | Not Active | –
9 | C#Cc1cccc(Nc2ncnc3cc(OCCOC)c(OCCOC)cc23)c1 [ERLOTINIB] | Not Active | – | – | Not Active | – | Not Active | Not Active | Not Active | Not Active | Not Active | –
